The first test concerns the target EGFR (mouse) (UniProt P00533). The note with it: balb/mk.
The IC50 is the concentration that inhibits the measured activity by half. A low value points to greater potency. As for `Nc1ncnc2c1c(-c1ccccc1)nn2-c1ccccc1`, the IC50 is more than 50 µM.

Take `Clc1cccc(Nc2n[nH]c3ncnc(Oc4cccc(Cl)c4)c23)c1`: the IC50 is more than 50 µM.

`O=[N+]([O-])c1cccc(-c2n[nH]c3ncnc(Nc4cccc(Cl)c4)c23)c1` gave an IC50 of more than 50 µM.

The target in a further test is EGFR (mouse) (UniProt P00533). Particulars: balb/c 3t3.
Compound `Clc1cccc(CNc2n[nH]c3ncnc(Nc4cccc(Cl)c4)c23)c1` registered an IC50 of more than 10 µM.

On to `Nc1nc(N)c2c(Nc3cccc(Cl)c3)n[nH]c2n1`, for which the IC50 is more than 10 µM.

As for `Clc1cccc(Nc2ncnc3[nH]nc(NCc4ccccc4)c23)c1`, the IC50 was more than 10 µM.

Take `Clc1cccc(Nc2n[nH]c3ncnc(NCc4ccccc4)c23)c1`: the half-maximal inhibitory concentration (IC50) was more than 10 µM.

Regarding `Nc1ccc(-c2n[nH]c3ncnc(Nc4cccc(Cl)c4)c23)cc1`, the IC50 is more than 10 µM.

The compound `c1ccc(Nc2ncnc3[nH]nc(Nc4ccccc4)c23)cc1` showed a concentration for half-maximal inhibition (IC50) of more than 10 µM.

`Nc1ncnc2[nH]nc(Nc3cccc(Cl)c3)c12`: the IC50 is more than 10 µM.

On to `Oc1ccc(Nc2n[nH]c3ncnc(Nc4cccc(Cl)c4)c23)cc1`, for which the IC50 was more than 10 µM.

As for `Cc1cccc(Nc2ncnc3[nH]nc(Nc4cccc(Cl)c4)c23)c1`, the 50% inhibitory concentration (IC50) was more than 10 µM.

`Nc1ncnc2c1c(-c1ccccc1)nn2-c1ccccc1` came in with an IC50 of more than 10 µM.

The compound `Clc1cccc(Nc2n[nH]c3ncnc(Nc4ccccc4)c23)c1` returned an IC50 of more than 10 µM.

As to `Clc1cccc(Nc2n[nH]c3ncnc(Nc4cccc(Br)c4)c23)c1`, the IC50 is more than 10 µM.

With `Clc1cccc(Nc2n[nH]c3ncnc(Oc4cccc(Cl)c4)c23)c1`, the IC50 was 10 µM.

Consider `Oc1ccc(-c2n[nH]c3ncnc(Nc4cccc(Cl)c4)c23)cc1`, for which the IC50 is more than 10 µM.

In turn, `Nc1cccc(-c2n[nH]c3ncnc(Nc4cccc(Cl)c4)c23)c1` gave an IC50 of more than 10 µM.

Compound `Clc1cccc(Nc2ncnc3[nH]nc(-c4ccccc4)c23)c1` showed an IC50 of more than 10 µM.

`Oc1cccc(Nc2n[nH]c3ncnc(Nc4cccc(Cl)c4)c23)c1` registered an IC50 of more than 10 µM.

Compound `CC(C)(C)OC(=O)Nc1ccc(-c2n[nH]c3ncnc(Nc4cccc(Cl)c4)c23)cc1` gave a concentration for half-maximal inhibition (IC50) of more than 10 µM.

On to `COc1cccc(CNc2n[nH]c3ncnc(Nc4cccc(Cl)c4)c23)c1`, for which the IC50 is more than 10 µM.

The compound `COc1cccc(Nc2n[nH]c3ncnc(Nc4cccc(Cl)c4)c23)c1` came in with an IC50 of more than 10 µM.

Compound `COc1ccc(-c2n[nH]c3ncnc(Nc4cccc(Cl)c4)c23)cc1` showed an IC50 of more than 10 µM.

Take `O=[N+]([O-])c1cccc(-c2n[nH]c3ncnc(Nc4cccc(Cl)c4)c23)c1`: the IC50 was more than 10 µM.

Compound `Oc1cccc(-c2n[nH]c3ncnc(Nc4cccc(Cl)c4)c23)c1` returned an IC50 of more than 10 µM.

Take `COc1ccc(CNc2n[nH]c3ncnc(Nc4cccc(Cl)c4)c23)cc1`: the IC50 was more than 10 µM.

In the next test the target is EGFR (UniProt P00533).
EGFR, sequence (P00533 whole entry, looked up): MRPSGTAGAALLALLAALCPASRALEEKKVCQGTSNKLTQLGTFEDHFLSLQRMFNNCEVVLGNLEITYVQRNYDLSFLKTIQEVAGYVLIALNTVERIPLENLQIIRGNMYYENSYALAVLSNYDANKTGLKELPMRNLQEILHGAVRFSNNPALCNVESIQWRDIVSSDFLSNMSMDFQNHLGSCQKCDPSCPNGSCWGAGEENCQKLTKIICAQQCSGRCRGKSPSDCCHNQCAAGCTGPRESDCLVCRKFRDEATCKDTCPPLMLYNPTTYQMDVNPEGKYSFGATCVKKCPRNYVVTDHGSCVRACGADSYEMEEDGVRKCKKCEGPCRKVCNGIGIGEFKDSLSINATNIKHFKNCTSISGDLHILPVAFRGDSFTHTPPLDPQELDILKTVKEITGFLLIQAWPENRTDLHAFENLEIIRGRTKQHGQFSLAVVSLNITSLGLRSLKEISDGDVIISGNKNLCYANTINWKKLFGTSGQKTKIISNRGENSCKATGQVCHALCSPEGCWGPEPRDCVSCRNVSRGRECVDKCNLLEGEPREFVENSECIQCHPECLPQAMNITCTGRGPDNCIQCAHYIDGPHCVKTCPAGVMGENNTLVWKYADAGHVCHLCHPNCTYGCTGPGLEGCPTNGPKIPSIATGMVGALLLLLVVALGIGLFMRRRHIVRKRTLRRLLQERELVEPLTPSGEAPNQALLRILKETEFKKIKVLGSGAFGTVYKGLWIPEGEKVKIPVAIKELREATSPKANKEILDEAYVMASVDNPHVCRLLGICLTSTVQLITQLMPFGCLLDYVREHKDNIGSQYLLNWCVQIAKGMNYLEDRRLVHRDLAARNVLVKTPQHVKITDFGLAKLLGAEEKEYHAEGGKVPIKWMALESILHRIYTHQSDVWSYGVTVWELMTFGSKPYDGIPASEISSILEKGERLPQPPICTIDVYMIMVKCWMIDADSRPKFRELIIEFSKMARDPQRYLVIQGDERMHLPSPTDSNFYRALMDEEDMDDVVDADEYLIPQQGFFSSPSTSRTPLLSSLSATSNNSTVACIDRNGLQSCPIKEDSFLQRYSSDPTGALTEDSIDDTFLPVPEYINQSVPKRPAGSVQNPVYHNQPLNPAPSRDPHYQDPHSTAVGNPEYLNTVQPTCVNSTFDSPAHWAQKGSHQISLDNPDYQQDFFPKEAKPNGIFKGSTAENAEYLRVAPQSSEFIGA
Details: not given
Compound `Cc1c(C)n(C)c2ncnc(Nc3cccc(Cl)c3)c12` yielded an IC50 of 0.45 µM.

These data come from the Kinase Knowledgebase extract (Sharma et al. 2016).
